# Values quoted from earlier work as cited in US20070269404A1, “Controlling Sugar Feeding Insects” (Westham Ltd., priority 2006, published 2007).
# Test system: birds and mammals
# Settings: Williams et al. 2003
substance,measurement,value
Spinosad,toxicity to birds and mammals,very little toxicity
